Source: US10941216B2, “Engineered polypeptide conjugates and methods for making thereof using transglutaminase” (PFIZER INC., priority 2010, dated 2021)
pIC50: −log10 of the molar value. Like-named read-outs stand apart in the source and are kept apart here. Numbered stars: 1 amine (or outer) side, 2 acyl side, 3 side chain; on linkers, the order of the positions; unused ones are H or OH. Square brackets hold non-standard residues; d marks the D form. Peptide text beside a SMILES is read from it. * marks the point of attachment. ξ: configuration not given here. Dolaproine = CO[C@@H]([C@@H]1CCCN1)[C@@H](C)C(=O)O; X1 = COC([C@@H](C)C(=O)[*:2])[C@@H]1CCCN1[*:1]; Dil = CC[C@H](C)[C@H](NC)[C@@H](CC(=O)O)OC; PABC = O=C(OCc1ccc(N[*:1])cc1)[*:2]; Doe = c1ccc(C[C@H](N*)c2nccs2)cc1; X2 = C[C@@H](N*)[C@@H](O)c1ccccc1; Cit = NC(=O)NCCC[C@H](N)C(=O)O; NMeV = CN[C@H](C(=O)O)C(C)C; PEG3 = NCCOCCOCCOCCC(=O)O; ξK = NCCCCC(N)C(=O)O; Ahx = NCCCCCC(=O)O; βAla = NCCC(=O)O

What was measured:
Assay in all cases: In vitro cytotoxicity, CellTiter-Glo
Format in all cases: cell-based
[1] = system: SW620 cells; conditions: Homo sapiens; for pIC50: SW-620, SW620, target non-expressing, 96 hours, read-out: SW620 Antibody IC50
Description: (§1) In vitro cytotoxicity assays were carried out using various antibodies, payloads (i.e., agent moieties), and amine donor units. For mAb2 (a chimeric IgG1 antibody), target expressing (A431, OVCAR3, BxPC3 and HT-29) or non-expressing (SW620) cells were seeded on white walled clear bottom plates at 2000 cells/well for 24 hours before treatment. […] Cell viability was determined by CellTiter-Glo® Luminescent Cell Viability Assay 96 (Promega, Madison Wis.) 96 hours after treatment. […] IC50 was calculated by Prism software.

[2] = system: BxPC3 cells; conditions: Homo sapiens, BXPC-3, 96 h, read-out: BxPC3 Antibody IC50 (nM)
Description: as §1

[3] = system: HT-29 cells; conditions: Homo sapiens; HT-29, target expressing, 96 hours; read-out: HT-29 Antibody IC50
Description: as §1

[4] = system: A431 cells; conditions: Homo sapiens; for IC50: A-431, 96 h, read-out: A431 Antibody IC50 (nM); for pIC50: A-431, A431, target expressing, 96 hours, read-out: A431 Antibody IC50
Description: as §1

SMILES	pIC50 [1]	IC50 [2] [nM]	pIC50 [3]	IC50 [4] [nM]	pIC50 [4]	IC50 ([1]; SW-620, 96 h, read-out: SW620 Antibody IC50 (nM)) [nM]
CC[C@H](C)[C@@H]([C@@H](CC(=O)N1CCC[C@H]1C(OC)[C@@H](C)C(=O)N[C@@H](Cc1ccccc1)C(=O)O)OC)N(C)C(=O)[C@@H](NC(=O)[C@H](C(C)C)N(C)C(=O)CCCCCN)C(C)C (stereo partly drawn) [Sample 23, Aminocaproyl-MMAF] (H-[Ahx][NMeV]V[Dil][X1]F-OH)	11.00	0.28	–	–	–	–
CC[C@H](C)[C@@H]([C@@H](CC(=O)N1CCC[C@H]1[C@H](OC)[C@@H](C)C(=O)N[C@@H](Cc1ccccc1)c1nccs1)OC)N(C)C(=O)[C@@H](NC(=O)[C@H](C(C)C)N(C)C(=O)OCc1ccc(NC(=O)[C@H](CCCNC(N)=O)NC(=O)[C@@H](NC(=O)[C@H](CCCCN)NC(C)=O)C(C)C)cc1)C(C)C [Sample 27, AcLys-VC-PABC-MMAD] (Ac-KV[Cit][PABC][NMeV]V[Dil][Dolaproine]-Doe)	–	–	9.72	0.003	–	–
CO[C@H]1/C=C\C=C(/C)C(=O)NC2=CC(=O)C(NCCCCN)=C(C[C@@H](C)C[C@H](OC)[C@H](O)[C@@H](C)/C=C(\C)[C@@H]1OC(N)=O)C2=O [Sample 25, Putrescinyl-Geldanamycin]	< 6.00	–	6.50	–	< 6.00	–
CC[C@H](C)[C@@H]([C@@H](CC(=O)N1CCC[C@H]1[C@H](OC)[C@@H](C)C(=O)N[C@@H](Cc1ccccc1)c1nccs1)OC)N(C)C(=O)[C@@H](NC(=O)[C@H](C(C)C)N(C)C(=O)CCNC(=O)C(CCCCN)NC(C)=O)C(C)C (stereo partly drawn) [Sample 30, AcLys-β-Ala-MMAD] (Ac-[ξK][βAla][NMeV]V[Dil][Dolaproine]-Doe)	–	–	7.23	–	7.01	–
CC[C@H](C)[C@@H]([C@@H](CC(=O)N1CCC[C@H]1[C@H](OC)[C@@H](C)C(=O)N[C@H](C)[C@@H](O)c1ccccc1)OC)N(C)C(=O)[C@@H](NC(=O)[C@H](C(C)C)N(C)C(=O)CCOCCOCCOCCN)C(C)C [Sample 33, Amino-PEG3-C2-MMAE] (H-[PEG3][NMeV]V[Dil][Dolaproine]-X2)	–	–	6.68	258	–	–
CC[C@H](C)[C@@H]([C@@H](CC(=O)N1CCC[C@H]1[C@H](OC)[C@@H](C)C(=O)N[C@@H](Cc1ccccc1)c1nccs1)OC)N(C)C(=O)[C@@H](NC(=O)[C@H](C(C)C)N(C)C(=O)CCCCCN)C(C)C [Sample 28, Aminocaproyl-MMAD] (H-[Ahx][NMeV]V[Dil][Dolaproine]-Doe)	–	–	7.01	–	6.84	–
CC[C@H](C)[C@@H]([C@@H](CC(=O)N1CCC[C@H]1[C@H](OC)[C@@H](C)C(=O)N[C@@H](Cc1ccccc1)C(=O)O)OC)N(C)C(=O)[C@@H](NC(=O)[C@H](C(C)C)N(C)C(=O)OCc1ccc(NC(=O)[C@H](CCCNC(N)=O)NC(=O)[C@@H](NC(=O)CCCCCN)C(C)C)cc1)C(C)C [Sample 24, VC-PABC-MMAF] (H-[Ahx]V[Cit][PABC][NMeV]V[Dil][Dolaproine]F-OH)	–	427	–	–	–	483
